Source: ChEMBL document CHEMBL1134331, “New dermatological agents for the treatment of psoriasis” (J Med Chem, 2001)

Legend:
Vitamin D3 receptor = target: T1, Vitamin D3 receptor (Homo sapiens, UniProt P11473); experiment: Binding affinity to VDR receptor
T1 sequence (P11473 whole entry): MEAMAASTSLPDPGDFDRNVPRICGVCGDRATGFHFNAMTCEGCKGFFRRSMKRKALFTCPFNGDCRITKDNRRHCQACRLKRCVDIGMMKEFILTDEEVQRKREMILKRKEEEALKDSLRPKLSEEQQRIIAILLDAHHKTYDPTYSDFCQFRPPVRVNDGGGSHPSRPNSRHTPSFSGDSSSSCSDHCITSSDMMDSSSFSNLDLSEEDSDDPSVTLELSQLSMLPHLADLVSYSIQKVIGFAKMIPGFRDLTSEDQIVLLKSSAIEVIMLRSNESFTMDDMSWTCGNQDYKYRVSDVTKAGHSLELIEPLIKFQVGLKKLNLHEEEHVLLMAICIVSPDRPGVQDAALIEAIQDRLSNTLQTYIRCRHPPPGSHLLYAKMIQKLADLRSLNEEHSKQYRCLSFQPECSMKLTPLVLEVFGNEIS

Homo sapiens = species: Homo sapiens; experiment: Inhibition of growth of human keratinocytes; format: functional
[1] = target: Inosine-5'-monophosphate dehydrogenase (IMPDH) (Homo sapiens, UniProt P20839+P12268); experiment: Inhibition of […] dehydrogenase (IMPDH); range 7-8 nM; format: protein assay
[2] = Competitive inhibition of ATP binding
[3] = Inhibition of growth of T-cell lymphoblastoma; range 1-10 uM; format: functional

For `C=C1/C(=C\C=C2/CCC[C@]3(C)C([C@@H](C)CSc4ccc(C(C)(C)O)cc4)CC[C@@H]23)C[C@@H](O)C[C@@H]1O` (some centres undefined), the Kd (Vitamin D3 receptor) was 89 pM and the IC50 (Homo sapiens) was 280 pM.
`COc1c(C)c2c(c(N)c1C/C=C1\CCCC1[C@H](C)C(=O)O)C(=O)OC2` (some centres undefined) gave an IC50 [1] of 7000 pM.
Work on `COc1cc2ncnc(Nc3cccc(Br)c3)c2cc1OC` yielded an IC50 [2] of 25 pM.
Work on `C=C1/C(=C\C=C2/CCC[C@]3(C)C([C@@H](C)COc4ccc(C(C)(C)O)cc4)CC[C@@H]23)C[C@@H](O)C[C@@H]1O` (some centres undefined) yielded a Kd (Vitamin D3 receptor) of 73 pM and an IC50 (Homo sapiens) of 110 pM.
For `C/C(O)=C(\C#N)C(=O)Nc1ccc(C(F)(F)F)cc1`, the Concentration [3] was 1 µM.
In the case of `COc1cc(NC(=O)Nc2cccc(CNC(=O)O[C@H]3CCOC3)c2)ccc1-c1cnco1` [MERIMEPODIB], the IC50 [1] is reported as 7000 pM.
Work on `C=C1/C(=C\C=C2/CCC[C@]3(C)[C@@H]([C@H](C)/C=C/[C@@H](O)C4CC4)CC[C@@H]23)C[C@@H](O)C[C@@H]1O` [CALCIPOTRIENE] yielded an IC50 (Homo sapiens) of 32000 pM.
